Twelve molecules from patent US7196061B2, “Compounds that modulate neuronal growth and their uses” (priority 2003, dated 2007) can be followed below.

The subject of experiment [1] is MAG inhibitory activity. Put plainly: Neurite outgrowth over N-cadherin expressing 3T3 (LK8) cells with soluble MAG-Fc. Particulars: for effect on MAG-Fc inhibition of neurite outgrowth: MAG-Fc up to 25 μg/ml, Y27632 10 μM, BAG 6 μM, BDNF 5 ng/ml. The experiment is classed as cell-based, rat.
Description: Reagents and culture treatment. […] In particular, recombinant human FGF2 and BDNF were obtained from R&D systems (Minneapolis, Minn.) and used at final concentrations of 5 ng/ml. The Trk receptor agonist K252a was obtained from Calbiochem (San Diego, Calif.) and used at a final concentration of 100 nM. The Trk agonist peptide BAG (SEQ ID NO:18) was obtained from a commercial supplier (Multiple Peptide Systems, San Diego Calif.). […] Monoclonal antibody to GT1b (clone GMR5) was obtained from Seikagaku America (Falmouth, Mass.) and used at a final concentration of 20 μg/ml. A p75 NTR rabbit polyclonal antibody was raised against the extracellular domain of that receptor as previously described (see, Huber & Chao, Dev. Biol. 1995, 167:227–238) and used at a 1:200 dilution of serum. The known PKA inhibitors KT5720 and H-89 were obtained from Calbiochem (San Diego, Calif.) and used at final concentrations of 200 and 400 nM, respectively. The known PI3K inhibitors Wortmnannin and LY294002 were also obtained from Calbiochem (San Diego, Calif.) and were both used at final concentrations of 10 μM. The Rho kinase inhibitor Y27632 was obtained from Tocris (Bristol, UK) and used at 10 μM final concentration.
All reagents were diluted into the co-culture media and in general added to the cultures just prior to plating of the neurons. The exception was antiserum raised against the p75^NTR receptor. Instead, a high density neuronal suspension was treated with a 1:200 dilution of the serum for 60 minutes. The neurons were then diluted by a factor of about 20, and seeded out for culture.
The test system of the next experiment is GT1b. As to the kind of experiment: Neurite outgrowth over N-cadherin expressing 3T3 cells with monoclonal antibody for GT1b. The experiment is classed as cell-based, rat. Particulars: antibody 20 μg/ml; Y27632 10 μM, BAG 6 μM.
The next experiment deals with p75^NTR receptor. Put plainly: Neurite outgrowth over N-cadherin expressing 3T3 cells after treatment with antibody to p75NTR. Format: cell-based, rat. The conditions noted are these: Y27632 10 μM, BAG 6 μM, BDNF 5 ng/ml added after antibody treatment. On the procedure:
These antibody treated neurons were cultured after treatment in either: (1) control media without supplements; (2) the Rho kinase inhibitor Y27632 (10 μM final concentration); (3) BAG polypeptide (6 μM final concentration); or (4) BDNF neurotrophin (5 ng/ml final concentration). […] Each column in the figure indicates pooled results from the number of independent experiments indicated above it, and the bars on each column indicate the SEM.
Reagents and culture treatment. Unless otherwise noted here, reagents in the experiments set forth in this Section were obtained and as set forth supra, in Section 7.1.3 et seq. In particular, recombinant human FGF2 and BDNF were obtained from R&D systems (Minneapolis, Minn.) and used at final concentrations of 5 ng/ml. The Trk receptor […] K252a was obtained from Calbiochem (San Diego, Calif.) and used at a final concentration of 100 nM. The Trk agonist peptide BAG (SEQ ID NO:18) was obtained from a commercial supplier (Multiple Peptide Systems, San Diego Calif.). Recombinant MAG-Fc chimera was obtained from R&D Systems (Minneapolis, Minn.) and used at a final concentration of 5–25 μg/ml. Monoclonal antibody to GT1b (clone GMR5) was obtained from Seikagaku America (Falmouth, Mass.) and used at a final concentration of 20 μg/ml. […]

Experiment [2] has as its system cerebellar neurons. The experiment is classed as cell-based, rat. The conditions noted are these: K252a 100 nM, KT5720 200 nM, H-89 400 nM, Wortmannin and LY294002 10 μM; for effect on the neurite outgrowth response to BAG: BAG 6 μM; for effect on the neurite outgrowth response to BDNF: BDNF 5 ng/ml; for effect on the neurite outgrowth response to FGF2: FGF2 5 ng/ml. On the procedure:
To test the effects of various agents, the experiments were done as indicated in the figure using control media containing no additional supplements, or using media additionally supplement with K252a (100 nM final concentration), a PKA inhibitor (KT5720 at 200 nM final concentration or H-89 at 400 nM final concentration), or a PI3K inhibitor (Wortmannin or Ly294002, each at a final concentration of 10 μM). […] Each column in the figure indicates pooled results from at least three independent experiments, and the bars on each column indicate the SEM.
Reagents and culture treatment. Unless otherwise noted here, reagents in the experiments set forth in this Section were obtained and as set forth supra, in Section 7.1.3 et seq. In particular, recombinant human FGF2 and BDNF were obtained from R&D systems (Minneapolis, Minn.) and used at final concentrations of 5 ng/ml. The Trk receptor […] K252a was obtained from Calbiochem (San Diego, Calif.) and used at a final concentration of 100 nM. The Trk agonist peptide BAG (SEQ ID NO:18) was obtained from a commercial supplier (Multiple Peptide Systems, San Diego Calif.). […] A p75 NTR rabbit polyclonal antibody was raised against the extracellular domain of that receptor as previously described (see, Huber & Chao, Dev. Biol. 1995, 167:227–238) and used at a 1:200 dilution of serum. The known PKA inhibitors KT5720 and H-89 were obtained from Calbiochem (San Diego, Calif.) and used at final concentrations of 200 and 400 nM, respectively.

Experiment [3] deals with MAG inhibitory activity. Put plainly: Substrate based neurite outgrowth assay in inhibitory environment (MAG-Fc coated wells). Format: cell-based, rat. The conditions noted are these: for neurite growth in the inhibitory environment (overall / dose response) / neurite growth in the inhibitory environment at 33 μg/ml: 27 hours; for neurite growth in the inhibitory environment at 33 μg/ml: peptide 33 μg/ml.
Description: First, slides are coated with polylysine at 17 μg/ml in distilled water (“dH2O) for thirty (30) minutes at room temperature. After aspirating the wells, a mixture of anti-human IgG and/or fibronectin (both at 10 μg/ml in DMEM) is added to wells to be coated with those compounds, and incubated for 120 minutes. […] PND2/3 rat cerebellar neurons are then added at 15K to each well in DMEM, 10% FCS, 25 mM KCl and 5 ng/ml FGF2, bringing the final media volume to 300 μl in each well. The cerebellar neurons are cultured for 27 hours before fixing and staining for GAP-43.

Experiment [4] deals with T1, TrkB receptor (Rattus norvegicus, UniProt Q63604).
T1 construct: endogenous in cells; host or cells: primary rat cerebellar neurons co-cultured on 3T3 fibroblast monolayers
Put plainly: Neurite outgrowth assay, inhibition of the BDNF response. Format: cell-based. On the procedure: (§1) After 16 hours, the co-cultures were fixed and mean neurite length determined as has been previously described (Williams et al., J. Biol. Chem. 2000, 275:4007–4012).
(§2) The effect of this peptide on the BDNF and NT-4 response was tested in the above-described neurite outgrowth assay, with both NT ligands used at concentrations of 5 ng/ml.

The target in experiment [5] is T1, TrkB receptor. Put plainly: Neurite outgrowth assay, inhibition of the NT-4 response. Format: cell-based. On the procedure: as §1, §2
The test system of experiment [6] is cerebellar neurons. Put plainly: Neurite outgrowth assay, cerebellar neurons over 3T3 monolayers (stimulation / basal outgrowth). The experiment is classed as cell-based, rat. Particulars: for effect on basal neurite outgrowth: absence of any natural NT ligand, N-Ac-CRGEC-NH2 at concentrations greater than about 400 μM. On the procedure:
as §1

In the next experiment the target is Trk receptor (Rattus norvegicus, UniProt Q63604). The conditions noted are these: maximally active BAG (6 μM); peptides 125 μM, K252a 100 nM.
Experiment [7] deals with MAG inhibitory activity. Put plainly: Neurite outgrowth over 3T3 cells that do not express N-cadherin with soluble MAG-Fc. Format: cell-based, rat. Particulars: 3T3 without N-cadherin, BAG 6 μM.
The test system of experiment [8] is cerebellar neurons. The conditions noted are these: FGF2 5 ng/ml, WIN55,2122-2 0.2 μM; linear peptide up to 125 μM.
Description: The peptides were also tested for their ability to inhibit the neurite outgrowth response stimulated by other agents, including N-cadherin, FGF2 or a CB1 receptor agonist.

pEC50, pIC50: −log10 of the molar value. “And” between values parts separate entries of the source, which are not always exact repeats. Equal values may be shown once. “Also recorded” adds a separate entry of the source. Positions of bridges follow the written chain, without caps; N, C: chain ends. Residues, ends and D or L forms follow the SMILES beside them.

Sequence of Trk receptor (Q63604 32-821): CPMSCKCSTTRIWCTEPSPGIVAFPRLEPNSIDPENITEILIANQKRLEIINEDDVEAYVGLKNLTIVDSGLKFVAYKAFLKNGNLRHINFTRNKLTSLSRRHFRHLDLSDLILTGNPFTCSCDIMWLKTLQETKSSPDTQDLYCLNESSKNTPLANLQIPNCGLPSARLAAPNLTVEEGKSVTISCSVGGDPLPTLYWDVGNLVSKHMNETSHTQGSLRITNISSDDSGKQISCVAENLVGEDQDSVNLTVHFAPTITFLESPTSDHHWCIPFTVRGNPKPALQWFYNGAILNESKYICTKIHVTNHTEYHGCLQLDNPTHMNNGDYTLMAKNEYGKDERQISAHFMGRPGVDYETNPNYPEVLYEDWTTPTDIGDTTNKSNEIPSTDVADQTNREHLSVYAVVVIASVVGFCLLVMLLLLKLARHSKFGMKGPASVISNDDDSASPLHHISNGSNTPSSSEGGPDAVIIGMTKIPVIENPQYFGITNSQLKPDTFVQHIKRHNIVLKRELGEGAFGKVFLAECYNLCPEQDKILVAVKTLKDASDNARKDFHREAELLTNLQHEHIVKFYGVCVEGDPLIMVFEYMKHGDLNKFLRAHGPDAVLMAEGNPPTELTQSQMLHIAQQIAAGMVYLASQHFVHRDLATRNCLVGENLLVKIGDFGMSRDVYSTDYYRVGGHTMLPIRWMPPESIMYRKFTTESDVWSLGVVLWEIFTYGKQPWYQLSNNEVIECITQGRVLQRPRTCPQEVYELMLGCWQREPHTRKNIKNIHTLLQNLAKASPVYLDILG
T1 sequence (Q63604 32-821): as above
Description for GT1b: Cultures were maintained for 22 hours before fixing and staining for GAP-43. […] Each column in the figure indicates pooled results from between 7 and 10 independent experiments, and the bars on each column indicate the SEM.
Reagents and culture treatment. […] In particular, recombinant human FGF2 and BDNF were obtained from R&D systems (Minneapolis, Minn.) and used at final concentrations of 5 ng/ml. The Trk receptor agonist K252a was obtained from Calbiochem (San Diego, Calif.) and used at a final concentration of 100 nM. The Trk agonist peptide BAG (SEQ ID NO:18) was obtained from a commercial supplier (Multiple Peptide Systems, San Diego Calif.). […] A p75 NTR rabbit polyclonal antibody was raised against the extracellular domain of that receptor as previously described (see, Huber & Chao, Dev. Biol. 1995, 167:227–238) and used at a 1:200 dilution of serum. The known PKA inhibitors KT5720 and H-89 were obtained from Calbiochem (San Diego, Calif.) and used at final concentrations of 200 and 400 nM, respectively.

For `C[C@@H](N)[C@H]1CC[C@H](C(=O)Nc2ccncc2)CC1` [Y27632, reference compound], the “effect on MAG-Fc inhibition of neurite outgrowth” value (shortened to “effect on MAG-Fc inhibition”) in the experiment on MAG inhibitory activity [1] is recorded as “MAG-Fc does not inhibit neurite outgrowth”. Also, in the experiment on GT1b, the “effect on inhibition of neurite outgrowth by GT1b antibody” value is “effectively abolishes this effect”. Moreover, the “effect on inhibitory response elicited by p75NTR antibody” value in the experiment on p75^NTR receptor is “does not elicit an inhibitory response”.
In the case of `O=S(=O)(NCCNC/C=C/c1ccc(Br)cc1)c1cccc2cnccc12` [H-89], in the experiment on cerebellar neurons [2], the “effect on the neurite outgrowth response to BAG” value (shortened to “effect … to BAG”) was “essentially abolished”, the “effect on the neurite outgrowth response to BDNF” value (“effect … to BDNF” for short) was “essentially abolished” and the “effect on the neurite outgrowth response to FGF2” value (“effect … to FGF2” for short) was “unaffected”.
For cyclo(SRRGELSRRGEL) [hBAG2], in the experiment with MAG inhibitory activity [3] (MAG-Fc coating), the “neurite growth in the inhibitory environment (overall / dose response)” value was “block MAG inhibitory activity and promote neurite outgrowth”; the “neurite growth in the inhibitory environment at 33 μg/ml” value is given as “promotes neurite growth; also recorded: promoted neurite growth to an extent comparable to BAG polypeptide at a concentration of 10 μg/ml”.
For the molecule `CCCCCCOC(=O)[C@]1(O)C[C@@H]2O[C@@]1(C)n1c3ccccc3c3c4c(c5c6ccccc6n2c5c31)C(=O)NC4` [KT5720], in the experiment on cerebellar neurons [2], the “effect … to BAG” value was “essentially abolished”, the “effect … to BDNF” value is given as “essentially abolished” and the “effect … to FGF2” value was “unaffected”.
The term pIC50 denotes the IC50 on a negative log10 scale, so that one unit is a factor of ten. A lower pIC50 goes with a high IC50. In the case of `CC(=O)N[C@H]1CSSC[C@@H](C(N)=O)NC(=O)[C@H](CCC(=O)O)NC(=O)CNC(=O)[C@H](CCCNC(=N)N)NC(=O)[C@H](CCCNC(=N)N)NC(=O)[C@H](CO)NC1=O` [N-Ac-CSRRGEC-NH2] (Ac-CSRRGEC-NH2; disulfide 1-7), the “TrkB antagonist potency compared with NT-3 and NGF equivalent peptides” value at TrkB receptor [4] was “more potent TrkB antagonist”. Besides, the pIC50 at TrkB receptor [4] (50% inhibition of the BDNF response, BDNF 5 ng/ml) was 4.57 and ~4.60; at TrkB receptor [5], roughly 4.26. Besides, the “fold better than the NGF and NT-3 derived peptides at inhibiting the BDNF response” value at TrkB receptor [4] (BDNF 5 ng/ml) is on record as “approximately 5 fold”. Also, the “effect on basal neurite outgrowth” value in the experiment with cerebellar neurons [6] is reported as “neither the N-Ac-CSRRGEC-NH2 (SEQ ID NO:2) peptide nor its NGF or NT-3 equivalents had any effect on basal neurite outgrowth”. For the same molecule, the “inhibition of the neurite outgrowth response to the BAG peptide” value (“inhibition … to the BAG peptide” for short) at Trk receptor is “can fully inhibit the activity”.
Take `COC(=O)[C@@]1(O)C[C@H]2O[C@]1(C)n1c3ccccc3c3c4c(c5c6ccccc6n2c5c31)C(=O)NC4` [K252a]: in the experiment with cerebellar neurons [2], the “effect … to BAG” value is recorded as “essentially abolished”, the “effect … to BDNF” value is listed as “essentially abolished” and the “effect … to FGF2” value is given as “unaffected”. The “inhibition … to the BAG peptide” value against Trk receptor is “fully inhibited the response”.
Turning to c(dLdEGdRdRdSdLdEGdRdRdS) [hriBAG2], in the experiment on MAG inhibitory activity [3] (MAG-Fc coating), the “neurite growth in the inhibitory environment (overall / dose response)” value is “block MAG inhibitory activity and promote neurite outgrowth; also recorded: promoted substantial dose-dependent neurite growth”; the “neurite growth in the inhibitory environment at 33 μg/ml” value is “almost double the value seen in the inhibitory environment without the peptidomimetic; also recorded: promoted neurite growth to a substantially greater extent than BDNF, BAG peptide, and the hBAG2 and riBAG1 at any concentration”. Further, the “dose at which a neurite growth response can be observed” value in the experiment on MAG inhibitory activity [3] (inhibitory environment (MAG-Fc coating)) is recorded as “about 10 μg/ml”.
`CCN(CC)CCCCNc1ncc2cc(-c3cc(OC)cc(OC)c3)c(NC(=O)NC(C)(C)C)nc2n1` [PD17304, reference compound]: the “inhibition … to the BAG peptide” value on Trk receptor is given as “did not inhibit the response”.
With N-Ac-CRGEC-NH2, the “effect on basal neurite outgrowth” value with cerebellar neurons [6] was “no effect on basal neurite outgrowth”.
In general, pEC50 refers to −log10 of the EC50, conventionally taken in molar units. Read a high pEC50 as a small EC50. Turning to “Ac-CSRRGELAASRRGELC-NH2 (cysteine pairing not given here) [BAG]”, in the experiment with cerebellar neurons [6], the pEC50 is roughly 6.52 and the “concentration of near maximal neurite outgrowth response” value is “about 600 Nm”. Also, the “promotion of axonal growth compared with established growth promoting agents” value with cerebellar neurons [6] (BAG 6 μM, comparators 5 ng/ml) is “promotes axonal growth by the same extent as maximally active concentrations of NT-R, BDNF and FGF2”. Besides, the “lowest concentration that effectively blocks MAG inhibitor activity” value in the experiment on MAG inhibitory activity [1] (MAG-Fc 25 μg/ml) was found to be 30 nM. Besides, the “effect on MAG-Fc inhibition” value in the experiment with MAG inhibitory activity [1] is recorded as “MAG-Fc failed to inhibit neurite outgrowth”. Besides, the “effect on neurite outgrowth in the absence of MAG-Fc” value in the experiment with MAG inhibitory activity [7] is “does not have a substantial effect”. The “effect on MAG-Fc inhibition” value with MAG inhibitory activity [7] (MAG-Fc 25 μg/ml, BDNF 5 ng/ml) was “does effectively block the MAG response”. Moreover, the “effect on inhibition of neurite outgrowth by GT1b antibody” value in the experiment with GT1b was “the antibody's inhibitor effect is effectively eliminated”. In the experiment on p75^NTR receptor, the “effect on inhibitory response elicited by p75NTR antibody” value is “effectively blocks the p75^NTR antibody's inhibitory effect”. Also, the “neurite growth in the inhibitory environment at 10 μg/ml and 100 μg/ml” value in the experiment with MAG inhibitory activity [3] (concentrations of 10 μg/ml and 100 μg/ml, MAG-Fc coating) is listed as “promotes neurite growth”.
Regarding “Ac-dCdLdEGdRdRdSdAdAdLdEGdRdRdSdC-NHs [riBAG1]”, in the experiment on MAG inhibitory activity [3] (MAG-Fc coating), the “neurite growth in the inhibitory environment (overall / dose response)” value was “block MAG inhibitory activity and promote neurite outgrowth”; the “neurite growth in the inhibitory environment at 33 μg/ml” value was “does not promote growth”.
In the case of Ac-SRRGELA-NH2, the “inhibition of the BDNF response” value on TrkB receptor [4] (BDNF 5 ng/ml, linear peptide up to 125 μM) was “did not inhibit any of the response”. The “inhibition of the NT-4 response” value at TrkB receptor [5] (NT-4 5 ng/ml, linear peptide up to 125 μM) was “did not inhibit any of the response”. Further, the “inhibition of neurite outgrowth response stimulated by N-cadherin, FGF2 or a CB1 receptor agonist” value in the experiment with cerebellar neurons [8] is “did not inhibit any of the response”. Besides, at Trk receptor, the “inhibition … to the BAG peptide” value is reported as “very little to no effect”.
